According to PubChem BioAssay AID210 (DTP/NCI, 2004):
Values joined by “and” are separate entries in the source; they are usually repeats but may differ in a detail not shown here. Equal values may be shown once. Toxic doses and inconclusive results are not listed. Rule for the calls: active = survival T/C of 150% or more; inactive = T/C below 125% in these data.

Tested on: CD2F1 mice, ip Colon 26 adenocarcinoma, median survival T/C
Assay: NCI In Vivo Anticancer Drug Screen. Data for tumor model Colon 26 Adenocarcinoma (intraperitoneal) in CD2F1 (CDF1) mice
Details: endpoint: median survival time, higher = longer survival
Description: The antitumor activity of compounds was measured in mice bearing transplantable tumors. Survival or tumor size were measured and the results are expressed as the measurement made in the treated group (T) divided by the measurement made in the vehicle treated control group (C). The tumor model used in this assay is Colon 26 Adenocarcinoma (intraperitoneal) in CD2F1 (CDF1) mice

[1] = dose: 2.0 mg/kg/injection, schedule: Q04DX003 (ip), vehicle: saline
[2] = dose: 25.0 mg/kg/injection, schedule: Q04DX003 (ip), vehicle: Klucel (hydroxypropylcellulose) (HPC)
[3] = dose: 50.0 mg/kg/injection, schedule: Q04DX003 (ip), vehicle: Klucel (hydroxypropylcellulose) (HPC)
[4] = dose: 100.0 mg/kg/injection, schedule: Q04DX003 (ip), vehicle: Klucel (hydroxypropylcellulose) (HPC)
[5] = dose: 200.0 mg/kg/injection, schedule: Q04DX003 (ip), vehicle: Klucel (hydroxypropylcellulose) (HPC)

Measured: T/C

O=c1n(CC2CO2)c(=O)n(CC2CO2)c(=O)n1CC1CO1 (configuration not stated)
active: dose: 25.0 mg/kg/injection, schedule: Q04DX003 (ip), vehicle: saline 237 % of control | dose: 40.0 mg/kg/injection, schedule: Q04DX003 (ip), vehicle: saline 292 % of control | dose: 50.0 mg/kg/injection, schedule: Q04DX003 (ip), vehicle: saline 237 % of control and 292 % of control | dose: 60.0 mg/kg/injection, schedule: Q04DX003 (ip), vehicle: saline 292 % of control | dose: 100.0 mg/kg/injection, schedule: Q04DX003 (ip), vehicle: saline 193 % of control and 237 % of control | dose: 200.0 mg/kg/injection, schedule: Q04DX003 (ip), vehicle: saline 237 % of control and 292 % of control | dose: 300.0 mg/kg/injection, schedule: Q04DX003 (ip), vehicle: saline 292 % of control | dose: 400.0 mg/kg/injection, schedule: Q04DX003 (ip), vehicle: saline 213 % of control and 292 % of control

CO[C@H](C(=O)[C@@H](O)[C@@H](C)O)[C@@H]1Cc2cc3cc(OC4CC(OC5CC(O)C(O)C(C)O5)C(O)C(C)O4)c(C)c(O)c3c(O)c2C(=O)[C@H]1OC1CC(OC2CC(OC3CC(C)(O)C(O)C(C)O3)C(O)C(C)O2)C(O)C(C)O1 (some centres not stated)
inactive: dose: 0.25 mg/kg/injection, schedule: Q04DX003 (ip), vehicle: saline 96 % of control | dose: 0.5 mg/kg/injection, schedule: Q04DX003 (ip), vehicle: saline 98 % of control | dose: 1.0 mg/kg/injection, schedule: Q04DX003 (ip), vehicle: saline 98 % of control | [1] 100 % of control

CCC1OCC(C(Cl)CCl)O1 (configuration not stated)
inactive: dose: 12.5 mg/kg/injection, schedule: Q04DX003 (ip), vehicle: Klucel (hydroxypropylcellulose) (HPC) 116 % of control | [2] 97 % of control | [3] 99 % of control | [4] 104 % of control | [5] 92 % of control

CCC[CH2][Hg][Cl]
inactive: dose: 3.12 mg/kg/injection, schedule: Q04DX003 (ip), vehicle: Klucel (hydroxypropylcellulose) (HPC) 98 % of control | dose: 6.25 mg/kg/injection, schedule: Q04DX003 (ip), vehicle: Klucel (hydroxypropylcellulose) (HPC) 93 % of control

COc1cccc2c1C(=O)c1c(O)c3c(c(O)c1C2=O)C[C@@](O)(C(C)=O)C[C@@H]3OC1CC(O)C(O)C(C)O1 (some centres not stated)
inactive: dose: 31.0 mg/kg/injection, schedule: Q07DX002 (iv), vehicle: saline 108 % of control

CC(=O)C1(O)Cc2c(O)c3c(c(O)c2C(OC2CC(N)C(O)C(C)O2)C1)C(=O)c1ccccc1C3=O (configuration not stated)
inactive: dose: 1.4 mg/kg/injection, schedule: Q07DX002 (iv), vehicle: saline 107 % of control | dose: 2.3 mg/kg/injection, schedule: Q07DX002 (iv), vehicle: saline 120 % of control | dose: 900.0 micrograms/kg/injection, schedule: Q04DX003 (ip), vehicle: water 92 % of control
active: dose: 324.0 micrograms/kg/injection, schedule: Q04DX003 (ip), vehicle: water 157 % of control

COc1ccc2cc1Oc1ccc(cc1)C[C@H]1c3cc(c(OC)cc3CCN1C)Oc1c(OC)c(OC)cc3c1[C@H](C2)N(C)CC3
inactive: dose: 12.5 mg/kg/injection, schedule: Q04DX003 (ip), vehicle: saline with Tween-80 92 % of control | dose: 25.0 mg/kg/injection, schedule: Q04DX003 (ip), vehicle: saline with Tween-80 101 % of control | dose: 50.0 mg/kg/injection, schedule: Q04DX003 (ip), vehicle: saline with Tween-80 92 % of control | dose: 100.0 mg/kg/injection, schedule: Q04DX003 (ip), vehicle: saline with Tween-80 94 % of control | dose: 200.0 mg/kg/injection, schedule: Q04DX003 (ip), vehicle: saline with Tween-80 101 % of control

N[C@@H](Cc1ccc(N(CCCl)CCCl)cc1)C(=O)O
active: dose: 1.0 mg/kg/injection, schedule: Q04DX002 (ip), vehicle: suspension in saline 162 % of control | dose: 1.25 mg/kg/injection, schedule: Q04DX003 (ip), vehicle: saline 175 % of control | dose: 2.0 mg/kg/injection, schedule: Q04DX002 (ip), vehicle: suspension in saline 231 % of control | dose: 2.5 mg/kg/injection, schedule: Q04DX003 (ip), vehicle: suspension in saline 181 % of control | dose: 4.0 mg/kg/injection, schedule: Q04DX002 (ip), vehicle: suspension in saline 249 % of control | dose: 5.0 mg/kg/injection, schedule: Q04DX003 (ip), vehicle: suspension in saline 186 % of control | dose: 8.0 mg/kg/injection, schedule: Q04DX002 (ip), vehicle: suspension in saline 277 % of control | dose: 10.0 mg/kg/injection, schedule: Q04DX003 (ip), vehicle: suspension in saline 182 % of control | dose: 16.0 mg/kg/injection, schedule: Q04DX002 (ip), vehicle: suspension in saline 226 % of control | dose: 20.0 mg/kg/injection, schedule: Q04DX003 (ip), vehicle: suspension in saline 216 % of control

COc1cccc2c1C(=O)c1c(O)c3c(c(O)c1C2=O)C[C@@](O)(C(C)=O)C[C@@H]3OC1CC(N)C(O)C(C)O1 (some centres not stated)
inactive: dose: 1.8 mg/kg/injection, schedule: Q04DX003 (ip), vehicle: water 114 % of control | dose: 2.0 mg/kg/injection, schedule: Q07DX002 (iv), vehicle: saline 113 % of control | dose: 2.16 mg/kg/injection, schedule: Q04DX003 (ip), vehicle: water 119 % of control | dose: 3.4 mg/kg/injection, schedule: Q07DX002 (iv), vehicle: saline 106 % of control | dose: 3.6 mg/kg/injection, schedule: Q04DX003 (ip), vehicle: water 103 % of control | dose: 4.0 mg/kg/injection, schedule: Q04DX003 (ip), vehicle: saline 115 % of control | dose: 5.7 mg/kg/injection, schedule: Q07DX002 (iv), vehicle: saline 104 % of control | dose: 9.5 mg/kg/injection, schedule: Q07DX002 (iv), vehicle: saline 115 % of control
active: [1] 158 % of control

Cc1ncc(CNC(=O)N(CCCl)N=O)c(N)n1
inactive: dose: 64.0 mg/kg/injection, schedule: Q04DX003 (oral), vehicle: saline 95 % of control
active: dose: 25.0 mg/kg/injection, schedule: Q04DX003 (oral), vehicle: saline 360 % of control | dose: 40.0 mg/kg/injection, schedule: Q04DX003 (oral), vehicle: saline 340 % of control

C[C@]1(O)CC[C@H]2[C@@H]3CCC4=CC(=O)CC[C@]4(C)[C@@]3(F)[C@@H](O)C[C@@]21C
inactive: [2] 94 % of control | [3] 105 % of control | [4] 108 % of control | [5] 99 % of control | dose: 400.0 mg/kg/injection, schedule: Q04DX003 (ip), vehicle: Klucel (hydroxypropylcellulose) (HPC) 97 % of control

CCOC(=O)c1ccc(NC(=O)Nc2nccs2)cc1
inactive: dose: 12.5 mg/kg/injection, schedule: Q04DX002 (ip), vehicle: saline with Tween-80 97 % of control | dose: 25.0 mg/kg/injection, schedule: Q04DX002 (ip), vehicle: saline with Tween-80 105 % of control | dose: 50.0 mg/kg/injection, schedule: Q04DX002 (ip), vehicle: saline with Tween-80 95 % of control | dose: 100.0 mg/kg/injection, schedule: Q04DX002 (ip), vehicle: saline with Tween-80 106 % of control | dose: 200.0 mg/kg/injection, schedule: Q04DX002 (ip), vehicle: saline with Tween-80 102 % of control | dose: 400.0 mg/kg/injection, schedule: Q04DX002 (ip), vehicle: saline with Tween-80 110 % of control
